Laboratory results published in patent US11478474B2, “2-(3′-(hydroxymethyl)-1-methyl-5-((5-(2-methyl-4-(oxetan-3-yl)piperazin-1-yl)pyridin-2-yl)amino)-6-oxo-1,6-dihydro-[3,4′-bipyridin]-2′-yl)-7,7-dimethyl-7,8-dihydro-2H-cyclopenta[4,5]pyrrolo[1,2-a]pyrazin-1(6H)-one as a BTK inhibitor” (HUTCHISON MEDIPHARMA LIMITED, priority 2020, dated 2022).

Key:
[1] = Stability test in liver microsomes (mouse); assay type: in vitro ADME; details: mouse liver microsomes 0.5 mg/mL, compound 1 μM, 37° C.
Description: (§1) Example 5 Stability Test in Liver Microsomes
(§2) Both male CD-1 mouse pooled liver microsomes and male SD rat pooled liver microsomes were purchased from BioreclamationIVT Corporation, USA.
(§3) Phenacetin, glucose-6-phosphate dehydrogenase (G-6-PDH) and nicotinamide adenine dinucleotide phosphate (NADP) were all purchased from Sigma-Aldrich Corporation, USA. Glucose-6-phosphate (G-6-P) was purchased from Shanghai Eybridge Chemical Technology Co., Ltd.
(§4) Ten mM test compound stock solution: a certain amount of test compound was weighed, and dissolved with an appropriate volume of DMSO to prepare a stock solution with a concentration of 10 mM for use.
(§5) Reaction stopping solution: an appropriate amount of internal standard compound phenacetin was dissolved in acetonitrile to prepare a reaction stopping solution with a concentration of 1000 ng/mL for use at room temperature.
(§6) The test compound stock solution was diluted with an organic solvent (usually a mixture of acetonitrile, methanol and water with various ratios, depending on the solubility of the compound, if necessary, 1 N hydrochloric acid or 1 N sodium hydroxide would be added to facilitate solubilization) to the 0.1 mM (the final concentration of the compound in the reaction system was 1 μM) and the concentration percentage of the organic solvents in the incubation system no more than 1% (wherein the percentage of DMSO was required to be no more than 0.1%). An appropriate amount of 100 mM NADP, 500 mM G-6-P and 100 Unit/mL G-6-PDH were mixed and diluted with ultrapure water (the final system contains 1 mM NADP, 5 mM G-6-P and 1 Unit/mL G-6-PDH), pre-incubated in a 37° C. water bath for 10 minutes and then placed on ice for use as a NADPH regeneration solution. 20 mg/mL liver microsomes solution and 200 mM phosphate buffer was mixed, and diluted with ultrapure water to give a liver microsomes solution containing 2.5 mg/mL liver microsomes (the final concentration of the reaction system is 0.5 mg/mL) and 50 mM phosphate buffer. The diluted liver microsomes solution was mixed with 0.1 mM compound solution, a mixture of 100 mM EDTA, 300 mM MgCl2 solution, 200 mM phosphate buffer (the final system was 3 mM MgCl2, 1 mM EDTA and 50 mM phosphate buffer) and water in an appropriate volume was added. Finally, the NADPH regeneration solution was added, then the reaction solution was placed in a 37° C. water bath to start the reaction (the reaction time was 30 minutes), and the reaction was stopped by adding the ice-cold acetonitrile reaction stopping solution containing the internal standard. The 0-minute sample was not incubated in a 37° C. water bath, and its difference from the 30-minute sample further lies in that the ice-cold acetonitrile reaction stopping solution containing the internal standard was added first, and then the NADPH regeneration solution was added. The sample added with the reaction stopping internal standard solution was vortexed and mixed well, and then centrifuged at 4400 rpm for 10 minutes. The supernatant was taken and diluted ten times with 50% methanol for LC-MS/MS analysis.
(§7) LC-MS/MS was used to determine the concentration of the compound in the sample. The percentage of the remaining compound after 30 minutes of incubation comparing with that in the 0-minute sample was calculated using the peak area ratio of the compound to the internal standard as an indicator, to evaluate the metabolic stability of the compound.
(§8) Instrument: API4500, API4000 or LTQ Mass Spectrometer; the liquid phase is UHPLC system (Shimadzu LC-30 AD, model Nexra X2) including liquid delivery unit, column thermostat, detector and autosampler; or Agilent 1200 Binary Pump series HPLC and CTC Autosampler.
(§9) Chromatographic column: Waters XSELECT Hss T3 C18 (2.5 μm, 2.1×50 mm) or […] (5 μm, 2.0×50 mm)
(§10) A: water with 0.1% FA (formic acid) (with or without 0.1% ACN (acetonitrile))
(§11) B: acetonitrile with 0.1% FA (formic acid).

[2] = Stability test in liver microsomes (rat); assay type: in vitro ADME; details: for stability in rat & mouse liver microsomes compared with the reference GDC-0853: 30 minutes; for RLM (percentage of the remaining compound after 30 minutes of incubation): rat liver microsomes 0.5 mg/mL, compound 1 μM, 37° C.
Description: as §1, §2, §3, §4, §5, §6, §7, §8, §9, §10, §11

[3] = system: TMD8 subcutaneous xenograft (human diffuse large B-cell lymphoma cells); assay: In vivo efficacy in TMD8 subcutaneous xenograft model in nude mice; details: for Number of animals with CR (Day 21): 8 animals per group; for Tumor volume (mm^3) ± SD Day 0: Day 0, before drug administration; for TGI (%) / Tumor volume (mm^3) ± SD Day 21: Day 21; for RBW (%) (Day 21): relative body weight; for Tumor growth inhibition (TGI %): oral gavage once a day, 21 days after treatment, vs vehicle control
Experimental: Example 7 Evaluation of In Vivo Efficacy of the Compound of the Present Invention in TMD8 Subcutaneous Xenograft Model
Objects: To investigate the anti-tumor activity of compound 19 in TMD8 subcutaneous xenograft model in nude mice.
Methods: Human diffuse large B-cell lymphoma cells TMD8 (acquired under license from Tokyo Medical and Dental University) were cultured in RPMI1640 medium containing 10% fetal bovine serum. 1×10^7 tumor cells suspended in RPMI1640 medium mixed well with Matrigel (purchased from Corning, USA) at 1:1 were implanted subcutaneously on the right flank of each male Balb/c nude mouse (Shanghai Lingchang Biotechnology Co., Ltd.), pretreated with cyclophosphamide (at a dose of 200 mg/kg, intraperitoneal injection 24 h before cell inoculation). […] All drugs were administered by oral gavage, once a day, and the vehicle control group was administered orally with 0.5% hydroxypropyl methylcellulose solution (pH=3).
Tumor volumes (tumor volume=0.5×long diameter×short diameter^2) and body weights of the mice were measured regularly. The tumor volume change and body weight were statistically analyzed, with p<0.05 considered statistically significant, and p<0.01 as extremely statistically significant.
The anti-tumor activity was evaluated by tumor growth inhibition. Tumor growth inhibition (TGI %)=100%×(1−(TVDt (treatment group)−TVD0 (treatment group))/(TVDt (control group)−TVD0 (control group))) Relative body weight (RBW %)=BWDt/BWD0×100%
wherein, TVD0 represents the tumor volume obtained at first measurement, namely, the tumor volume before drug administration, and TVDt represents the tumor volume on the day of measurement; BWD0 represents the body weight of the animal obtained at first measurement, namely, the body weight of the animal before drug administration; BWDt represents the body weight of the animal on the day of measurement.

[4] = 10 mg/kg oral gavage once a day
[5] = 30 mg/kg oral gavage once a day

Row | Compound | MLM (percentage of the remaining compound after 30 minutes of incubation) [1] [%] | RLM (percentage of the remaining compound after 30 minutes of incubation) [2] [%] | stability in rat & mouse liver microsomes compared with the reference GDC-0853 [2] | further results
1 | C[C@@H]1CN(c2ccc(Nc3cc(-c4ccnc(-n5ccn6c7c(cc6c5=O)CCC7)c4CO)cn(C)c3=O)nc2)[C@@H](C)CN1C1COC1 [Compound 2, 2-(5-((5-((2S,5R)-2,5-dimethyl-4-(oxetan-3-yl)piperazin-1-yl)pyridin-2-yl)amino)-3′-(hydroxymethyl)-1-methyl-6-oxo-1,6-dihydro-[3,4′-bispyridin]-2′-yl)-7,8-dihydro-2H-cyclopenta[4,5]pyrrolo[1,2-a]pyrazin-1(6H)-one] | 90.5 | 98.9 | better than that of the reference GDC-0853 | 
2 | Cn1cc(-c2ccnc(-n3ccn4c5c(cc4c3=O)CC(C)(C)C5)c2CO)cc(Nc2ccc(N3CCN(C4COC4)CC3)cn2)c1=O [Compound 9] | 95.7 | 89.5 | better than that of the reference GDC-0853 | 
3 | C[C@H]1CN(C2COC2)CCN1c1ccc(Nc2cc(-c3ccnc(-n4ccn5c6c(cc5c4=O)CC(C)(C)C6)c3CO)cn(C)c2=O)nc1 [Compound 19] | 91.8 | 92.7 | better than that of the reference GDC-0853 | Number of animals with CR (Day 21) [3, 4]: 0; Tumor volume (mm^3) ± SD Day 0 [3, 4]: 400 ± 41 mm^3; TGI (%) [3, 4]: 76.5%; Tumor volume (mm^3) ± SD Day 21 [3, 4]: 1065 mm^3; RBW (%) (Day 21) [3, 4]: 111.0%; Tumor growth inhibition (TGI %) ([3]; 10 mg/kg): 76.5%; Number of animals with CR (Day 21) [3, 5]: 8; Tumor volume (mm^3) ± SD Day 0 [3, 5]: 396 ± 47 mm^3; TGI (%) [3, 5]: 114%; Tumor volume (mm^3) ± SD Day 21 [3, 5]: 0 mm^3; RBW (%) (Day 21) [3, 5]: 109.8%; Tumor growth inhibition (TGI %) ([3]; 30 mg/kg): 114%; mice with complete tumor regression (CR) ([3]; 30 mg/kg, oral once a day, Day 21, 8 animals per group): 8 mice
4 | C[C@H]1CN(C2COC2)CCN1c1ccc(Nc2cc(-c3ccnc(-n4ccn5c6c(cc5c4=O)CC(C)(C)C6)c3CO)nn(C)c2=O)nc1 [Compound 22] | 83.4 | 95.6 | better than that of the reference GDC-0853 | 
5 | C[C@H]1CN(C2COC2)CCN1c1cnc(Nc2cc(-c3ccnc(-n4ccn5c6c(cc5c4=O)CC(C)(C)C6)c3CO)cn(C)c2=O)nc1 [Compound 44] | 93.1 | 97.1 | better than that of the reference GDC-0853 | 
6 | C[C@H]1CN(C2COC2)CCN1c1ccc(Nc2cc(-c3ccnc(-n4ccn5c6c(cc5c4=O)CCC(F)(F)C6)c3CO)cn(C)c2=O)nc1 [Compound 56] | 89.5 | 93.7 | better than that of the reference GDC-0853 | 
7 | C[C@H]1CN(C2COC2)CCN1c1ccc(Nc2cc(-c3ccnc(-n4ccn5c6c(cc5c4=O)CC(F)(F)CC6)c3CO)cn(C)c2=O)nc1 [Compound 58] | 97.1 | ~100 | better than that of the reference GDC-0853 | 

The next lines start with results.

Row | MLM (percentage of the remaining compound after 30 minutes of incubation) [1] [%] | RLM (percentage of the remaining compound after 30 minutes of incubation) [2] [%] | Compound | stability in rat & mouse liver microsomes compared with the reference GDC-0853 [2] | further results
8 | 83.4 | 91.8 | CC1CCc2cc3c(=O)n(-c4nccc(-c5cc(Nc6ccc(N7CCN(C8COC8)C[C@@H]7C)cn6)c(=O)n(C)c5)c4CO)ccn3c2C1 (mixture of isomers) [Compound 78] | better than that of the reference GDC-0853 | 
9 | 85.8 | 89.6 | C[C@H]1CN(C2COC2)CCN1c1ccc(Nc2cc(-c3ccnc(-n4cnn5c6c(cc5c4=O)CC(C)(C)C6)c3CO)cn(C)c2=O)nc1 [Compound 63] | better than that of the reference GDC-0853 | 
10 | 95.6 | 92.1 | C[C@H]1CN(C2COC2)CCN1c1ccc(Nc2cc(-c3ccnc(-n4ccn5c6c(cc5c4=O)CCC6)c3CO)cn(C)c2=O)nc1 [Compound 64] | better than that of the reference GDC-0853 | 
11 | 97.5 | 87.7 | C[C@H]1CN(C2COC2)CCN1c1ccc(Nc2cc(-c3ccnc(-n4ccn5c(cc6ccccc65)c4=O)c3CO)cn(C)c2=O)nc1 [Compound 74] | better than that of the reference GDC-0853 | 
12 | 83.0 | 84.0 | C[C@H]1CN(C2COC2)CCN1c1ccc(Nc2cc(-c3ccnc(-n4ccn5c(cc6cc(F)ccc65)c4=O)c3CO)cn(C)c2=O)nc1 [Compound 75] | better than that of the reference GDC-0853 | 
13 | ~100 | ~100 | C[C@H]1CN(C2COC2)CCN1c1ccc(Nc2cc(-c3ccnc(-n4ncn5c6c(cc5c4=O)CC(C)(C)C6)c3CO)cn(C)c2=O)nc1 [Compound 79] | better than that of the reference GDC-0853 | 
